Read-outs that look alike come from different tables or passages of the source.

The target of one assay is PAPD7 (Homo sapiens, UniProt Q5XG87). The assay can be described thus: HBsAg ELISA in HepG2/2.2.15 PAPD5 KO cells (PAPD7 inhibitory activity). The assay is classed as cell-based. The following applies: Table 3, HBsAg secretion, 4 days, read-out: pIC50 PAPD7 (PAPD5 KO cells) (converted).
The test system of assay [1] is HBsAg secretion in HepG2/2.2.15 WT cells (combined effect of PAPD5 and PAPD7 inhibition).
Protocol: The hepatocarcinoma HepG2/2.2.15 cell line (hereafter referred to as wild type) was obtained from Millipore (SCC249) and HepG2/2.2.15 PAPD5 knock-out (PAPD5 KO) and PAPD7 knock-out (PAPD7 KO) cells were generated using CRISPR/Cas9 technology.
An ELISA was performed using a hepatocarcinoma HepG2/2.2.15 wild type (WT) cell line to assess the potential of the compounds of the present invention as treatments of chronic HBV infection.
Cell seeding and addition of the compounds: On day −1, HepG2/2.2.15 cell lines were seeded in U-bottom 96-well plates (Fisher Scientific, 10777241) at a density of 1,5×10^4 cells/well in a final volume of 200 μL complemented DMEM/F12. On day 0, medium was aspirated and cells were washed once with PBS (300 μL/well). Then, PBS was replaced with complemented DMEM/F12 (200 μL/well). Using a Tecan-TE300e chemical dispenser, the compounds were added to the cells with 11 half-log incremental dilutions in dimethyl sulfoxide (DMSO) (Sigma-Aldrich, 276855) within the highest concentration equal to 25 μM (concentration range 1). DMSO was used as no-drug control, and the final DMSO concentration in all wells was 0.5%. […] On day 4, the 96-well plate was centrifuged for 5 min at 300 g to spin down cell debris. 100 μL/well of cell culture supernatant were collected and diluted 1:2 with 100 μL of complemented DMEM/F12 to perform the ELISA.
ELISA: Before starting, the “Hepatitis B surface antigen ELISA kit” (Abnova, KA0286) was equilibrated at room temperature (RT) for 1 h. […] The anti-HB plate was sealed using adhesive foil provided with the kit and incubated for 1 h at 37° C. […] After the last wash, the residual liquid was removed by turning the plate upside down and tapping on adsorbent paper. TMB substrate solutions A and B were mixed in equal volumes and 100 μL/well of this mixture were added to each well. The plate was covered with the supplied tray and incubated at RT for 20 min. During this time, a color develops in proportion to the amount of HBsAg bound to anti-HBs. After incubation, the reaction was stopped by adding 100 μL/well of 2N aqueous H2SO4 solution. The optical density of the developed color was read at 450 nm using a Cytation 5 instrument with reference wavelength at 620 nm.
CCK8 viability assay: Viability of HepG2/2.2.15 WT, PAPD5 KO and PAPD7 KO cell lines treated with the compounds was determined using the Cell Counting Kit-8 (CCK8, Sigma-Aldrich, 96992) following the manufacturer's instructions. […] During this time, WST-8 is reduced by dehydrogenases in cells to give a yellow-colored product (formazan), which is soluble in the tissue culture medium. The amount of the formazan dye generated by the activity of dehydrogenases in cells is directly proportional to the number of living cells. After 1 h incubation, the optical density of the developed color was read at 450 nm using a Cytation 5 instrument with the reference wavelength at 620 nm. CCK8 optical density values were used for normalization of the ELISA results.
To determine the IC50 values, the amount of HBsAg (optical density values of the ELISA) was corrected by the number of living cells (CCK8 optical density) per each well. Normalized HBsAg values were used to generate a dose-response curve with a non-linear regression model and applying the Levenberg-Marquardt algorithm. The percentage of inhibition was calculated relative to the untreated condition (DMSO CTRLs).
Another assay has as its target PAPD5 (Homo sapiens, UniProt Q8NDF8). The assay can be described thus: cell-based. To be noted: for Fold sel. for PAPD5 over PAPD7: PAPD7 KO cells vs PAPD5 KO cells. Also on record: endogenous in cells; host or cells: HepG2/2.2.15 PAPD7 knock-out cells (CRISPR/Cas9).
Setting [2] is: Table 3, HepG2/2.2.15 PAPD7 KO cells, HBsAg secretion, 4 days, read-out: pIC50 PAPD5 (PAPD7 KO cells) (converted).
Setting [3] is: Table 5, PAPD7 KO cells, read-out: PIC50 PAPD5 (PAPD7 KO cells) (converted).

Sequence of PAPD7 (Q5XG87 whole entry): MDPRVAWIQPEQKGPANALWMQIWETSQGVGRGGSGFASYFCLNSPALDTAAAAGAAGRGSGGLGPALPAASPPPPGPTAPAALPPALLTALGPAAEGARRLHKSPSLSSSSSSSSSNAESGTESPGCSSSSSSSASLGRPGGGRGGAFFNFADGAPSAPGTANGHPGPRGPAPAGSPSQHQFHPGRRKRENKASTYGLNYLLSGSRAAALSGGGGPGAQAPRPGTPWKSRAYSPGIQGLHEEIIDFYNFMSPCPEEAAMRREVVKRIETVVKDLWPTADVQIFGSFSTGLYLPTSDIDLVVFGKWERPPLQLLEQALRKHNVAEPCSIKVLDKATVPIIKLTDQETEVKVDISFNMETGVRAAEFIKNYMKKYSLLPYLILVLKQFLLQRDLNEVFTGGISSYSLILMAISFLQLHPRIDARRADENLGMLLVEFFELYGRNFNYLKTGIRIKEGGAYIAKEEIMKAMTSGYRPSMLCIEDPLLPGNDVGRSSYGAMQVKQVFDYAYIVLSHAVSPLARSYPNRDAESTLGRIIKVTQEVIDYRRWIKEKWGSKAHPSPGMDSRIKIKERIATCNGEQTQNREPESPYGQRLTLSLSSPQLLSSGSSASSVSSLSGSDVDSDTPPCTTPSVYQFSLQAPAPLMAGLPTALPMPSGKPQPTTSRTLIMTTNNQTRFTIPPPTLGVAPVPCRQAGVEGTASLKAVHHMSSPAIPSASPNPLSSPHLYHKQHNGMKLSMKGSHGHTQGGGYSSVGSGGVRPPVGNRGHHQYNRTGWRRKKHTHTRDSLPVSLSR
Sequence of PAPD5 (Q8NDF8 whole entry): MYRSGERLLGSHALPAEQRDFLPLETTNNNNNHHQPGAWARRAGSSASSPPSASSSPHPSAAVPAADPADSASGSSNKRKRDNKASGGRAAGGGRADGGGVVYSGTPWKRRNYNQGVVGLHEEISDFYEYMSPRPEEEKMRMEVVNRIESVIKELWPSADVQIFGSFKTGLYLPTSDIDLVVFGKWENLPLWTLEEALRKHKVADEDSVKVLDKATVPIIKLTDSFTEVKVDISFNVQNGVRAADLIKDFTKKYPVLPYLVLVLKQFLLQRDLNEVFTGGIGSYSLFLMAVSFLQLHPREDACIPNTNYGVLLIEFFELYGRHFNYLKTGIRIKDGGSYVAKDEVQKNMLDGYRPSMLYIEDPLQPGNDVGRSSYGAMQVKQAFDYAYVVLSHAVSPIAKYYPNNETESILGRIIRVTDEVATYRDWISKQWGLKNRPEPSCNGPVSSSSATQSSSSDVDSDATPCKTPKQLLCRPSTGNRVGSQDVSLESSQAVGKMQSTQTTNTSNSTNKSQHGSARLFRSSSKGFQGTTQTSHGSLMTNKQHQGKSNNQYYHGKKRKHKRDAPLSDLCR

Take `COCCCOc1cc2c(nc1OC)-c1c(cc(C(=O)O)c(=O)n1C1CC1)C(C(C)C)O2` (racemic) [Example 504, (RS)-10-Cyclopropyl-6-isopropyl-2-methoxy-3-(3-methoxypropoxy)-9-oxo-9,10-dihydro-6H-pyrano[3,2-b:4,5-b′]dipyridine-8-carboxylic acid]: the IC50 is 2.51 nM at PAPD7, 0.501 nM in assay [1] and 0.631 nM at PAPD5 (setting [2]). For the same compound, on PAPD5 (Table 3), the “Fold sel. for PAPD5 over PAPD7” value was found to be 4.8 Fold.

Regarding `CCn1c2c(cc(C(=O)O)c1=O)C(C(C)C)Oc1cc(OCCCOC)c(OC)nc1-2` (racemic) [Example 503, (RS)-10-Ethyl-6-isopropyl-2-methoxy-3-(3-methoxypropoxy)-9-oxo-9,10-dihydro-6H-pyrano[3,2-b:4,5-b′]dipyridine-8-carboxylic acid], the values for the IC50 (at PAPD7; in assay [1]; on PAPD5 (setting [2])) were 5.01 nM, 1.26 nM and 1 nM, respectively. The “Fold sel. for PAPD5 over PAPD7” value at PAPD5 (Table 3) is recorded as 5.9 Fold.

Regarding `COCCCOc1cc2c(cc1OC)-c1c(cc(C(=O)O)c(=O)n1C1CC1)C(C(C)(C)C)O2` (racemic) [Example 802, (RS)-5-(tert-Butyl)-1-cyclopropyl-9-methoxy-8-(3-methoxypropoxy)-2-oxo-1,5-dihydro-2H-chromeno[4,3-b]pyridine-3-carboxylic acid, reference compound], in assay [1], the IC50 is 1 nM.

For `COCCCOc1cc2c(nc1OC)-c1c(cc(C(=O)O)c(=O)n1CCO)C(C(C)C)O2` (racemic) [Example 510, (RS)-10-(2-Hydroxyethyl)-6-isopropyl-2-methoxy-3-(3-methoxypropoxy)-9-oxo-9,10-dihydro-6H-pyrano[3,2-b:4,5-b′]dipyridine-8-carboxylic acid], the IC50 was 31.6 nM on PAPD7, 15.8 nM in assay [1] and 5.01 nM at PAPD5 (setting [2]). Moreover, the “Fold sel. for PAPD5 over PAPD7” value on PAPD5 (Table 3) is 6.4 Fold.

Take `COCCCOc1cc2c(nc1OC)-c1[nH]c(=O)c(C(=O)O)cc1C(C(C)C)O2` (racemic) [Example 501, (RS)-6-Isopropyl-2-methoxy-3-(3-methoxypropoxy)-9-oxo-9,10-dihydro-6H-pyrano[3,2-b:4,5-b′]dipyridine-8-carboxylic acid]: the IC50 at PAPD7 was 39.8 nM; in assay [1] it was 7.94 nM; at PAPD5 (setting [2]) it was 6.31 nM. On PAPD5 (Table 3), the “Fold sel. for PAPD5 over PAPD7” value is given as 7.1 Fold.

As to `COCCCOc1cc2c(nc1OC)-c1c(cc(C(=O)O)c(=O)n1CC(F)F)C(C(C)C)O2` (racemic) [Example 511, (RS)-10-(2,2-Difluoroethyl)-6-isopropyl-2-methoxy-3-(3-methoxypropoxy)-9-oxo-9,10-dihydro-6H-pyrano[3,2-b:4,5-b′]dipyridine-8-carboxylic acid], the IC50 on PAPD7 was 5.01 nM; in assay [1] it was 1.26 nM; at PAPD5 (setting [2]), 0.794 nM. The “Fold sel. for PAPD5 over PAPD7” value at PAPD5 (Table 3) worked out at 6.9 Fold.

For `COCCCOc1cc2c(nc1OC)-c1c(cc(C(=O)O)c(=O)n1C1CC1)C(C(C)(C)C)C2` (racemic) [Example 702, (RS)-5-(tert-Butyl)-1-cyclopropyl-9-methoxy-8-(3-methoxypropoxy)-2-oxo-1,2,5,6-tetrahydro-1,10-phenanthroline-3-carboxylic acid, reference compound], the figures for the IC50 (in assay [1]; at PAPD5 (setting [3])) were 2.51 nM and 3.16 nM, respectively.

As to `COCCCOc1cc2c(nc1OC)-c1c(cc(C(=O)O)c(=O)n1C)C(C(C)C)O2` (racemic) [Example 502, (RS)-6-Isopropyl-2-methoxy-3-(3-methoxypropoxy)-10-methyl-9-oxo-9,10-dihydro-6H-pyrano[3,2-b:4,5-b′]dipyridine-8-carboxylic acid], the IC50 at PAPD7 is 12.6 nM; in assay [1], 6.31 nM.

Take `COCCCOc1cc2c(cc1OC)-c1[nH]c(=O)c(C(=O)O)cc1C(C(C)(C)C)O2` (racemic) [Example 801, (RS)-5-(tert-Butyl)-9-methoxy-8-(3-methoxypropoxy)-2-oxo-1,5-dihydro-2H-chromeno[4,3-b]pyridine-3-carboxylic acid, reference compound]: the IC50 in assay [1] was 39.8 nM; at PAPD5 (setting [3]), 50.1 nM.
